Target: USP30 (Homo sapiens (Human), UniProt Q70CQ3)
Assay: USP30 Biochemical IC50 Assay
Settings: fluorescence polarisation, TAMRA labelled peptide linked to ubiquitin as substrate
Method: Dilution plates were prepared at 21 times the final concentration (2100 μM for a final concentration of 100 μM) in 50% DMSO in a 96-well polypropylene V-bottom plate (Greiner #651201). A typical 8-point dilution series would be 100, 30, 10, 3, 1, 0.3, 0.1, 0.03 μM final. Reactions were performed in duplicate in black 384 well plates (small volume, Greiner 784076) in a final reaction volume of 21 μl. Either 1 μl of 50% DMSO or diluted compound was added to the plate. USP30 was diluted in reaction buffer (40 mM Tris, pH 7.5, 0.005% Tween 20, 0.5 mg/ml BSA, 5 mM beta-mercaptoethanol) to the equivalent of 0.05 μl/well and 10 μl of diluted USP30 was added to the compound. Enzyme and compound were incubated for 30 min at room temp. Reactions were initiated by the addition of 50 nM of TAMRA labelled peptide linked to ubiquitin via an iso-peptide bond as fluorescence polarisation substrate. Reactions were read immediately after addition of substrate and following a 2-hour incubation at room temperature. Readings were performed on a Pherastar Plus (BMG Labtech). λ Excitation 540 nm; λ Emission 590 nm.

USP30, sequence (Q70CQ3 whole entry): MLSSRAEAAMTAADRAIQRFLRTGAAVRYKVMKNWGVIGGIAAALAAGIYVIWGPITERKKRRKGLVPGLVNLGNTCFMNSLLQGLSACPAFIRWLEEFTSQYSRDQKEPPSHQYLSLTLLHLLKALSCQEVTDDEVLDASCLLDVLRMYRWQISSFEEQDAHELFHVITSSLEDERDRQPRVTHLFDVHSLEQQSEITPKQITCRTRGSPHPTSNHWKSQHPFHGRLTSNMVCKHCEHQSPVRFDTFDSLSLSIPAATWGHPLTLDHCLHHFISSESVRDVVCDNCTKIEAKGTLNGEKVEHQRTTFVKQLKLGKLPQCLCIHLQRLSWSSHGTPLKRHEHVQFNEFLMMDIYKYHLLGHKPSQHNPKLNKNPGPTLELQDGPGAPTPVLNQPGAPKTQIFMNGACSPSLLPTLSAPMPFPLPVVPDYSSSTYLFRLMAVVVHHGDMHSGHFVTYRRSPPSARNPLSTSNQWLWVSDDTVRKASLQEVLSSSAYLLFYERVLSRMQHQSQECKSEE

IC50 [µM] | SMILES
0.01 to 0.1 | C[C@@H]1[C@H](CNC(=O)c2ncn(-c3cccc(C#N)c3)n2)CCN1C#N (mixture of isomers) [Example 4, N-(((2R,3R)-1-cyano-2-methylpyrrolidin-3-yl)methyl)-1-(3-cyanophenyl)-1H-1,2,4-triazole-3-carboxamide and N-(((2R,3S)-1-cyano-2-methylpyrrolidin-3-yl)methyl)-1-(3-cyanophenyl)-1H-1,2,4-triazole-3-carboxamide]
0.01 to 0.1 | CN(C[C@H]1CCN(C#N)C1)C(=O)c1ncn(-c2cccc(C#N)c2)n1 [Example 2, (S)-1-(3-cyanophenyl)-N-((1-cyanopyrrolidin-3-yl)methyl)-N-methyl-1H-1,2,4-triazole-3-carboxamide]
0.1 to 1 | N#Cc1cccc(-n2cc(C(=O)NC[C@H]3CCN(C#N)C3)nn2)c1 [Example 5, (R)-1-(3-cyanophenyl)-N((1-cyanopyrrolidin-3-yl)methyl)-1H-1,2,3-triazole-4-carboxamide]
< 0.01 | N#CN1CC[C@H](CNC(=O)c2cnn(-c3cccc(Cl)c3)n2)C1 [Example 7, (R)-2-(3-chlorophenyl)-N-((1-cyanopyrrolidin-3-yl)methyl)-2H-1,2,3-triazole-4-carboxamide]
